PMC7912881, “Polyhydroxy p-Terphenyls from a Mangrove Endophytic Fungus Aspergillus candidus LDJ-5” (Marine Drugs, 2021)
≈ marks a conversion by molar mass, not a printed value. Where two headings read alike, the source gives them in different places.

Legend:
Bacillus cereus = assay: Antimicrobial activity, agar dilution method; assay type: cell-based
Procedure: (§1) All p-terphenyls (1–7) were tested for their cytotoxicity against the L-02, MGC-803, HCT-116, BEL-7402, A549, SH-SY5Y, Hela, U87, K562, HL-60, HO8910, and MCF-7 cell lines using either the SRB or the MTT method with adriamycin as positive control. […] Recently, we have also reported nine prenylated p-terphenyls from Aspergillus candidus LDJ-5 [6]. Most of the prenylated p-terphenyls were cytotoxic. Additionally, comparing to prenylcandidusin B and prenylcandidusin C, compounds 2 and 3 were distinguished by the presence of one hydroxy group and the lack of the isoprenyl group on ring C (C-3″). […] The antimicrobial activities of compounds 1–7 were evaluated in vitro against Proteus species, Pseudomonas aeruginosa, Bacillus subtilis, B. cereus, and Mycobacterium phlei. […] Asperterphenyllin A (1) was also tested for antiviral activity and protein tyrosine phosphatase 1B (PTP1B) inhibitory activity. The antiviral activity of asperterphenyllin A (1) was evaluated against the influenza A virus (H1N1) using the cytopathic effect (CPE) inhibition assay. […] Protein tyrosine phosphatase 1B (PTP1B) has been reported to be a novel drug target for diabetes and obesity. It has also been considered to be involved in tumorigenesis.
(§2) Antimicrobial activities were evaluated as previously reported by using the agar dilution method. The five microbial strains included Proteus sp., Pseudomonas aeruginosa, Bacillus subtilis, B. cereus, and Mycobacterium phlei. Ciprofloxacin was used as positive control. All strains were donated by the Qingdao municipal hospital.

Bacillus subtilis = assay: Antimicrobial activity, agar dilution method; assay type: cell-based
Procedure: as §1, §2

Mycobacterium phlei = assay: Antimicrobial activity, agar dilution method; assay type: cell-based; conditions: Mycolicibacterium phlei
Procedure: as §1, §2

Proteus species = assay: Antimicrobial activity, agar dilution method; assay type: cell-based
Procedure: as §1, §2

Pseudomonas aeruginosa = assay: Antimicrobial activity, agar dilution method; assay type: cell-based
Procedure: as §1, §2

[1] = test system: L-02, MGC-803, HCT-116, BEL-7402, A549, SH-SY5Y, Hela, U87, K562, HL-60, HO8910, and MCF-7 cell lines; assay: Cytotoxicity against the panel of cell lines (SRB or MTT method); assay type: cell-based, human; conditions: for IC50: Homo sapiens; for cytotoxicity effects: compared with prenylcandidusins on K562
Procedure: as §1
(§3) The cytotoxicity of 1–7 and positive control was evaluated against human leukemia cell lines K562 and HL-60 (using the MTT method), human normal liver cell line L-02, human gastric cancer cell lines MGC-803, human colon cancer lines HCT-116, human hepatocacinoma cell line BEL-7402, human lung cancer cell lines A549, human neuroblastoma cell line SH-SY5Y, human cervical cancer cell lines HeLa, human glioma cell lines U87, human ovarian cancer cell lines HO-8910, and human breast cancer cell lines MCF-7 (using the SRB method). Adriamycin was used as positive control. The detailed methodologies for biological testing have been described in previous reports. All the cell lines were purchased from the Institute of Biochemistry and Cell Biology, Chinese Academy of Sciences (Shanghai, China).

influenza A virus (H1N1) = assay: Anti-influenza A viral (H1N1) CPE inhibition assay; assay type: cell-based
Procedure: as §1
The antiviral activity of compound 1 against influenza A virus (H1N1) was evaluated by the CPE inhibition assay. […]

[2] = target: T1, protein tyrosine phosphatase 1B (PTP1B) (Homo sapiens, UniProt P18031); assay: PTP1B inhibitory assay (pNPP hydrolysis); assay type: biochemical; conditions: pNPP substrate, room temperature
T1 sequence (P18031 1-435): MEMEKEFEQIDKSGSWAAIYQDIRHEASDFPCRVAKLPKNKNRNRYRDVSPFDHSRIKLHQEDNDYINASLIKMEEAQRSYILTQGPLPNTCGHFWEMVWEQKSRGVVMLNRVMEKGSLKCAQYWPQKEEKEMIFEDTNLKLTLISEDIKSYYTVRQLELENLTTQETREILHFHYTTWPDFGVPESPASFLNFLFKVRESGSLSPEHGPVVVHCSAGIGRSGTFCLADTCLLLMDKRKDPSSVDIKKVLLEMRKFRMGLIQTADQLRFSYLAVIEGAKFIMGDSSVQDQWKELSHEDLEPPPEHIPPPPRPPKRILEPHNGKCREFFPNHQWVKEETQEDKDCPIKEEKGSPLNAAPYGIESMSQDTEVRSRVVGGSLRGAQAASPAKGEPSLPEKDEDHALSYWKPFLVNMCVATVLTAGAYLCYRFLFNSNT

Cytotoxicity, SRB method = assay type: cell-based; conditions: L-02 normal liver cells, L-02 human normal liver cell line
Procedure: as §1, §3

A549 cell line = assay: Cytotoxicity, SRB method; assay type: cell-based; conditions: A549 human lung cancer cell line
Procedure: as §1, §3

BEL-7402 cell line = assay: Cytotoxicity, SRB method; assay type: cell-based; conditions: BEL-7402 human hepatocarcinoma cell line
Procedure: as §1, §3

HCT-116 cell line = assay: Cytotoxicity, SRB method; assay type: cell-based; conditions: HCT-116 human colon cancer cell line
Procedure: as §1, §3

HO8910 cell line = assay: Cytotoxicity, SRB method; assay type: cell-based; conditions: HO-8910, HO8910 human ovarian cancer cell line
Procedure: as §1, §3

Hela cell line = assay: Cytotoxicity, SRB method; assay type: cell-based; conditions: Hela human cervical cancer cell line
Procedure: as §1, §3

MGC-803 cell line = assay: Cytotoxicity, SRB method; assay type: cell-based; conditions: MGC-803 human gastric cancer cell line
Procedure: as §1, §3

SH-SY5Y cell line = assay: Cytotoxicity, SRB method; assay type: cell-based; conditions: SH-SY5Y human neuroblastoma cell line
Procedure: as §1, §3

U87 cell line = assay: Cytotoxicity, SRB method; assay type: cell-based; conditions: U-87 MG, U87 human glioma cell line
Procedure: as §1, §3

K562 cell lines = test system: K562 cell lines; set-up: method as in PMID 31827255; conditions: cited from earlier work
[3] = all twelve tested cell lines, SRB or MTT, read-out: IC50 against all tested cell lines

SMILES	MIC (Bacillus cereus) [µg/mL]	MIC (Bacillus subtilis) [µg/mL]	MIC (Mycobacterium phlei) [µg/mL]	MIC (Proteus species) [µg/mL]	MIC (Pseudomonas aeruginosa) [µg/mL]	IC50 [1, 3] [µM]	other results
O=C(O)c1cn(C2CC2)c2cc(N3CCNCC3)c(F)cc2c1=O [Ciprofloxacin, reference compound]	2.07 (≈ 6.25 µM)	4.14 (≈ 12.5 µM)	0.52 (≈ 1.57 µM)	0.26 (≈ 0.785 µM)	0.52 (≈ 1.57 µM)	–	–
COc1c(-c2ccc(O)c(O)c2)cc(OC)c2c1oc1c(-c3c(O)c(O)cc4c3oc3c(OC)c(-c5ccc(O)c(O)c5)cc(OC)c34)c(O)c(O)cc12 [Compound 1, Asperterphenyllin A]	> 200	> 200	> 200	> 200	> 200	> 50	IC50 (influenza A virus (H1N1); H1N1, CPE inhibition assay, read-out: IC50 anti-influenza virus A (H1N1) activity): 53 µM; IC50 [2]: 21 µM
COc1cc2oc3c(OC)c(-c4ccc(O)c(O)c4)cc(OC)c3c2cc1OC [Compound 2, Asperterphenyllin B]	> 200	> 200	79 (≈ 199 µM)	> 200	40 (≈ 101 µM)	> 50	cytotoxicity effects [1]: did not show any cytotoxicity effects
COc1cc2oc3c(OC)c(-c4ccc(O)c(O)c4)cc(OC)c3c2cc1O [Compound 3, Asperterphenyllin C]	> 200	38 (≈ 99.4 µM)	38 (≈ 99.4 µM)	19 (≈ 49.7 µM)	> 200	> 50	cytotoxicity effects [1]: did not show any cytotoxicity effects
COc1cc(-c2ccc(O)cc2)c(OC)c(OC)c1-c1ccc(O)c(O)c1 [Compound 4, Asperterphenyllin D]	70 (≈ 190 µM)	> 200	> 200	> 200	> 200	> 50	–
COc1cc(-c2c(OC)cc(-c3ccccc3)c(OC)c2O)ccc1O [Compound 5, Asperterphenyllin E]	70 (≈ 199 µM)	70 (≈ 199 µM)	70 (≈ 199 µM)	35 (≈ 99.3 µM)	70 (≈ 199 µM)	> 50	–
COc1cc(-c2ccc(O)c(O)c2)c(OC)c(O)c1-c1ccccc1 [Compound 6, Asperterphenyllin F]	> 200	> 200	> 200	> 200	> 200	> 50	–
COc1cc(-c2ccc(O)cc2)c(OC)c(O)c1-c1ccc(OC/C=C(\C)CO)c(O)c1 [Compound 7, Asperterphenyllin G]	87 (≈ 198 µM)	> 200	> 200	> 200	> 200	–	IC50 (Cytotoxicity, SRB method): 1700 nM; IC50 (A549 cell line): 400 nM; IC50 (BEL-7402 cell line): 6 µM; IC50 (HCT-116 cell line): 800 nM; IC50 (HO8910 cell line): 1300 nM; IC50 (Hela cell line): 1700 nM; IC50 (MGC-803 cell line): 1000 nM; IC50 (SH-SY5Y cell line): 600 nM; IC50 (U87 cell line): 900 nM; IC50 ([1]; read-out: IC50 values against nine cell lines (range)): 0.4 to 1.7 µM
COc1cc2oc3c(OC)c(-c4ccc(O)c(CC=C(C)C)c4)cc(OC)c3c2cc1OC [Prenylcandidusin B]	–	–	–	–	–	–	inhibitory activity against K562 cell lines (K562 cell lines): moderate inhibitory activity
COc1cc2oc3c(OC)c(-c4ccc(O)c(CC=C(C)C)c4)cc(OC)c3c2cc1O [prenylcandidusin C]	–	–	–	–	–	–	inhibitory activity against K562 cell lines (K562 cell lines): moderate inhibitory activity
NC(=O)c1ncn([C@@H]2O[C@H](CO)[C@@H](O)[C@H]2O)n1 [ribavirin, reference compound]	–	–	–	–	–	–	IC50 (influenza A virus (H1N1); H1N1, read-out: IC50 anti-influenza virus A (H1N1) activity): 35 µM
